{"source": "paper PMC11591307", "about": "“An RGD-Conjugated Prodrug Nanoparticle with Blood–Brain–Barrier Penetrability for Neuroprotection Against Cerebral Ischemia–Reperfusion Injury” (Antioxidants, 2024)", "key": {"BEnd.3 cells [1]": {"tested_on": "BEnd.3 cells", "experiment": "MTT cytotoxicity assay on BEnd.3 cells", "assay_type": "cell-based, Mouse", "details": "24 h treatment, all three concentrations, Figure S6", "description": "Mouse brain microvascular endothelial cells (BEnd.3) were cultured in DMEM medium containing 10% FBS and maintained at 37 °C in a humidified atmosphere with 5% CO2. Drug solutions were prepared by diluting in PBS to the desired concentrations. Cells were seeded at a density of 4000 cells per well in 96-well plates. Once the cells had adhered, 25 μL of LA-1 or loganin solutions at varying concentrations were added to each well, followed by a 24 h incubation. BEnd.3 cells were treated with 3.12 or 6.25 μM of LA-1 or loganin for 24 h, followed by exposure to 200 μM tertiary-butylhydroperoxide (TBHP) for 4 h to induce oxidative stress. After the treatments, 25 μL of MTT solution (5 mg/mL) was added to each well, and the cells were incubated for an additional 4 h. The supernatant was then carefully removed, and the formazan crystals were dissolved in 150 μL of DMSO. Plates were shaken at room temperature for 15 min, and absorbance was measured at 490/570 nm using a microplate reader (Molecular Devices, SpectraMax ABS, San Jose, CA, USA). Cell viability = (Absorbance (drug well))/(Absorbance (control well)) × 100%"}, "BEnd.3 cells [2]": {"tested_on": "BEnd.3 cells", "experiment": "Cellular uptake in BEnd.3 cells (LC-MS/MS)", "assay_type": "in vitro ADME, Mouse", "details": "6.25 μM; for Intracellular amount over time: 3 or 6 h incubation", "description": "BEnd.3 cells were seeded in 60mm dishes at 2 × 10⁶ cells/mL, with 5 mL of DMEM containing 10% FBS. After 12 h, the medium was replaced with 5 mL fresh medium, followed by 1 mL of 6.25 μM LA-1 solution. Cells were incubated for 3 or 6 h, washed twice with PBS, and harvested using 1 mL of HPLC-grade methanol. After vortexing for 2 min and centrifuging at 13,300 rpm for 5 min (6766-HS corning® High Speed Microcentrifuge, Corning, NY, USA), the supernatant was concentrated and reconstituted with 200 μL methanol. Samples were centrifuged again at 13,300 rpm for 10 min, and the supernatant was analyzed via LC–MS (ACQUITY UPLC I-Class/Xevo TQ-XS, Waters, Milford, MA, USA). Standard curves were prepared by serial dilutions of HPLC-grade methanol with concentrations ranging from 1 μg/mL to 100 pg/mL for each LA-1."}, "BEnd.3 cells [3]": {"tested_on": "BEnd.3 cells", "experiment": "Impact of integrin αvβ3 inhibitor c(RGDfK) on LA-1 uptake in BEnd.3 cells", "assay_type": "in vitro ADME, Mouse", "details": "BEnd.3 cells pretreated 1 h with 100 μM c(RGDfK) (method: 20 nM), then 6.25 μM compound for 3 or 6 h, LC-MS/MS", "description": "BEnd.3 cells were seeded at 2 × 10⁶ cells/mL in […], with 5 mL DMEM containing 10% FBS. After 12 h, the medium was replaced with 5 mL fresh medium and 1 mL 20 nM c(RGDfK). After 1 h, 1 mL of 6.25 μM compound solution was added, followed by incubation for 3 or 6 h. Cells were washed twice with PBS, collected in 1 mL of HPLC-grade methanol, and centrifuged at 13,300 rpm for 5 min (6766-HS corning® High Speed Microcentrifuge, Corning, NY, USA). The supernatant was concentrated and reconstituted in 200 μL methanol before a final 10 min centrifugation. The supernatant was then used for LC–MS/MS (ACQUITY UPLC I-Class/Xevo TQ-XS, Waters, Milford, MA, USA) analysis."}, "[4]": {"experiment": "In vivo pharmacokinetic study, plasma", "set-up": "species or system rat", "details": "SD rats, intravenous tail injection 30 mg/kg, LC-MS/MS, n = 3", "description": "We purchased male Sprague-Dawley (SD) rats weighing between 200 and 220 g, which had been catheterized in the jugular vein, from Beijing Sinocon Pharmaceutical Technology Co., Ltd. (Beijing, China). The rats were divided into two groups: LA-1 group and loganin group, with three rats in each group. First, 200 μL of whole blood was collected from each rat at time point zero as a blank control. Subsequently, LA-1 and loganin were administered tail via injection at a dose of 30 mg/kg, dissolved in 0.9% saline. For the pharmacokinetics of the intravenously administered drugs, blood samples of 200 μL were collected from the rats at 5, 15, 30, 45 min, 1, 1.5, 2, 3, 6, 8, 12, and 24 h, using heparinized anticoagulation tubes for processing. After each blood collection, 200 μL of perfusion solution was injected into the rats through the catheter to maintain their physiological status. To obtain the rat plasma, the samples were centrifuged immediately at 3500 rpm for 10 min (5810R) after collection. Methanol (300 μL) was added to plasma samples (100 μL) to precipitate plasma proteins, then rotary evaporation at 35 °C was used to remove methanol from the samples. The LA-1 and loganin were quantified by LC–MS/MS analysis (ACQUITY UPLC I-Class/Xevo TQ-XS, Waters, Milford, MA, USA)."}, "[5]": {"experiment": "Intra-brain distribution after ischemic injury", "assay_type": "in vivo, rat", "details": "MCAO rats, LA-1 10 mg/kg vs loganin 30 mg/kg i.v., 3 h after administration, right hemisphere, LC-MS/MS, n = 3", "description": "To investigate the distribution of LA-1 and loganin within the brain, the experimental protocol was as follows: First, the rats were subjected to 2 h of induced ischemia, after which the filament was removed to allow for reperfusion. Subsequently, LA-1 (10 mg/kg) and loganin (30 mg/kg) were administered via tail vein injection. […] At the 3 h time point, the rats were anesthetized, perfused with saline via the heart, and then euthanized to collect brain tissue. The brain tissue was divided into left and right hemispheres, with the right hemisphere representing the ischemic region. The right hemisphere was placed into a 5 mL centrifuge tube, and 600 μL of pre-chilled PBS was added, followed by homogenization on ice. A 200 μL aliquot of the homogenate was combined with 200 μL of chromatography-grade methanol and 200 μL of chromatography-grade acetonitrile, and subjected to ultrasonic treatment for 5 min. The mixture was then centrifuged at 13,000 rpm for 10 min at 4 °C, and the supernatant was collected for concentration. After concentration, 200 μL of chromatography-grade methanol was added for reconstitution, followed by another round of high-speed centrifugation to obtain the supernatant. Finally, the target molecules were quantified using LC–MS/MS (ACQUITY UPLC I-Class/Xevo TQ-XS, Waters, Milford, MA, USA). […]"}, "[6]": {"experiment": "H&E staining of heart, liver, spleen and kidney (biosafety in vivo)", "set-up": "species or system rat", "details": "Figure S7", "description": "(§1) Fresh brain, heart, liver, spleen, and kidney tissues from rats were fixed in 4% paraformaldehyde, dehydrated, embedded in paraffin, and sectioned into 4 µm slices. For HE staining, the sections were deparaffinized using a dewaxing agent (G1128, Solarbio, Beijing, China), rehydrated in ethanol of various concentrations, stained with hematoxylin and eosin, dehydrated, and sealed with neutral resin. For Nissl staining, thin sections were immersed in the staining solution for 15 min (G1086, Solarbio, Beijing, China), washed with water, rapidly dehydrated with absolute ethanol, and cleared in xylene for 5 min. The sections were then mounted with neutral resin. Finally, the sections were observed using a light microscope (Nikon Eclipse E100, Tokyo, Japan) and analyzed with a 3D viewer."}, "MCAO rats": {"tested_on": "MCAO rats", "experiment": "MCAO cerebral ischemia-reperfusion injury model", "assay_type": "in vivo, rat", "details": "for Neurological score (Zelonga): 22 h post-treatment, loganin 30 mg/kg, LA-1 10 mg/kg i.v.; for Neurological score (Zelonga) / Infarct area versus model (TTC staining): edaravone 3 mg/kg", "description": "A selection of 6–8-week-old Sprague–Dawley (SD) male rats weighing 250 to 280 g were divided into five groups, with 12 rats in each group: sham group, model group (MCAO), edaravone group (3 mg/kg), LA-1 group (10 mg/kg), and loganin group (30 mg/kg). In all groups of rats, anesthesia was induced with 3% isoflurane and then maintained at 2.5% isoflurane during surgery. Briefly, a 1–2 cm incision was made along the midline of the rat’s neck to expose the right carotid artery. Then, a nylon suture (A5-243650, Beijing Cinontech Co. Ltd., Beijing, China) coated with silica gel was inserted through the external carotid artery (ECA) into the middle […], which was then occluded. In this instance, the monofilament was not inserted in the sham group. After 2 h, the nylon suture was removed to allow reperfusion, and different drugs were immediately administered to the rats via the tail vein. Additionally, the sham and model groups received an equivalent dose of distilled water, with a dosage of 2 mL/kg. Cerebral blood flow was measured using a laser speckle flow imaging system (RWD Life science Co., Ltd., RFLSI ZW, Shenzhen, China) at three distinct time points: before ischemia, 2 h after ischemia, and 22 h after reperfusion. Neurological function scores for the treatment groups were assessed blindly at 22 h post-MCAO using the ZeLonga scoring system, after which the anesthetized rats were quickly euthanized. The brain tissue was harvested and then sectioned into seven slices, with six slices subjected to 2,3,5-triphenyltetrazolium chloride (TTC) staining to calculate the brain infarct area, while the remaining slice was preserved for future use.\nas §1\nParaffin sections were prepared as described for HE staining. The sections were dewaxed and antigen retrieval was performed using citric acid (pH 6.0). The sections were blocked in 0.1% Triton in PBS for 15 min. TUNEL reaction solution (TDT:dUTP:buffer = 1:5:50) was added, followed by blocking with BSA. After washing, sections were incubated with the secondary antibody (Cy3-goat anti-rabbit, GB21303, 1:300) at room temperature for 50 min. Finally, after PBS washing, the sections were stained with DAPI, mounted with an anti-fading mounting medium, and images were acquired using a fluorescence microscope (Nikon Eclipse C1, Tokyo, Japan)."}, "[7]": {"experiment": "Particle size and zeta potential", "assay_type": "physicochemical", "details": "laser nanoparticle sizer Nano-ZS90", "description": "The size distribution and zeta potential of LA-1 and loganin were determined using a laser nanoparticle sizer (Nano-ZS90, Malvern Instruments Ltd., Malvern, Worcestershire, UK)."}, "[8]": {"experiment": "Morphology by TEM, SEM and AFM", "assay_type": "physicochemical", "details": "SEM, AFM, samples in deionized water, dried", "description": "Each sample was further diluted to 0.1 mg/mL, and 10 μL was placed dropwise onto copper grids and dried at room temperature for 7 days. Transmission electron microscopy (TEM, […], Tokyo, Japan) and scanning electron microscopy (SEM, Hitachi, S-4800, Tokyo, Japan) were used to observe the morphology. In total, 1 mg of LA-1 or loganin was ultrasonically dispersed in 1 mL of deionized water. Then, 100 μL of the samples were dropped onto 10 × 10 mm mica sheets and air-dried overnight. The surface morphology was characterized by atomic force microscopy (AFM, Bruker, Multimode 8, Bruker, Billerica, Germany)."}, "[9]": {"details": "22 h reperfusion, loganin 30 mg/kg i.v."}, "[10]": {"details": "LA-1 10 mg/kg, loganin 30 mg/kg i.v."}}, "note": "Residues, ends and D or L forms follow the SMILES beside them. *: point of attachment. X1 = C[C@@H]1[C@H]2[C@H](O[C@@H]3O[C@H](CO)[C@@H](O)[C@H](O)[C@H]3O)OC=C(C(=O)*)[C@H]2C[C@@H]1O", "data": [{"smiles": "CC(C)[C@H](NC(=O)[C@H](CC(=O)O)NC(=O)CNC(=O)[C@H](CCCNC(=N)N)NC(=O)C1=CO[C@@H](O[C@@H]2O[C@H](CO)[C@@H](O)[C@H](O)[C@H]2O)[C@@H]2[C@@H](C)[C@@H](O)C[C@H]12)C(=O)O", "note": "[LA-1, LA-Arg-Gly-Asp-Val] (X1-RGDV-OH)", "values": [{"measurement": "Cell viability (cytotoxicity)", "setting": "BEnd.3 cells [1]", "value": "no significant change"}, {"measurement": "Intracellular amount over time", "setting": "BEnd.3 cells [2]", "value": "continued to accumulate"}, {"measurement": "Cellular uptake of LA-1 relative to loganin", "setting": "BEnd.3 cells [2]; 6 h incubation, n = 3", "value": "approximately 2148 fold"}, {"measurement": "Decrease of cellular uptake in the presence of c(RGDfK)", "setting": "BEnd.3 cells [3]", "value": "approximately 3 fold"}, {"measurement": "Time at which plasma concentration was below the limit of detection / undetectable", "setting": "[4]", "value": 90, "unit": "min"}, {"measurement": "half-life", "setting": "[4]; male, Sprague-Dawley, rat", "value": "~10", "unit": "min"}, {"measurement": "Brain accumulation in ischemic brain tissue", "setting": "[5]", "value": "dramatically higher than that of loganin"}, {"measurement": "Pathophysiological changes in heart, liver, spleen and kidney tissue sections", "setting": "[6]", "value": "No significant pathophysiological changes"}]}, {"smiles": "CC1=NN(c2ccccc2)C(=O)C1", "note": "[edaravone, Edaravone]", "values": [{"measurement": "Neurological score (Zelonga)", "setting": "MCAO rats", "value": "reduction trend in neurological score but without statistically significant difference"}, {"measurement": "Infarct area versus model (TTC staining)", "setting": "MCAO rats; [9]", "value": "significant infarct area reduction"}]}, {"smiles": "COC(=O)C1=CO[C@@H](O[C@@H]2O[C@H](CO)[C@@H](O)[C@H](O)[C@H]2O)[C@@H]2[C@@H](C)[C@@H](O)C[C@H]12", "note": "[Loganin]", "values": [{"measurement": "polydispersity index (PDI)", "setting": "[7]", "value": 0.194}, {"measurement": "Particle Size", "setting": "[7]; mean ± SD", "value": "231.5 ± 81.23", "unit": "nm"}, {"measurement": "Zeta Potential", "setting": "[7]; mean ± SD", "value": "−4.16 ± 4.40", "unit": "mV"}, {"measurement": "Nanostructure morphology", "setting": "[8]", "value": "irregular and unevenly dispersed"}, {"measurement": "Cell viability (cytotoxicity)", "setting": "BEnd.3 cells [1]", "value": "no significant change"}, {"measurement": "Intracellular amount over time", "setting": "BEnd.3 cells [2]", "value": "reached a plateau after 3 h"}, {"measurement": "Plasma half-life", "setting": "[4]", "value": "~45", "unit": "min"}, {"measurement": "Time at which plasma concentration was below the limit of detection / undetectable", "setting": "[4]", "value": 180, "unit": "min"}, {"measurement": "Neurological score (Zelonga)", "setting": "MCAO rats", "value": "reduction trend in neurological score but without statistically significant difference"}, {"measurement": "Infarct area (TTC staining)", "setting": "MCAO rats; 22 h reperfusion, LA-1 10 mg/kg, loganin 30 mg/kg i.v.", "value": 16.843, "unit": "%"}, {"measurement": "Infarct area versus model (TTC staining)", "setting": "MCAO rats; [9]", "value": "significant infarct area reduction"}, {"measurement": "H&E staining of cortical neurons", "setting": "MCAO rats; [10]", "value": "improved the morphology, though to a lesser extent than LA-1"}, {"measurement": "Nissl staining of neurons", "setting": "MCAO rats; [10]", "value": "the recovery was less pronounced compared to LA-1"}]}]}
